Measurements taken from patent publication US7045528B2, “Benzofused heterozryl amide derivatives of thienopyridines useful as therapeutic agents, pharmaceutical compositions including the same, and methods for their use” (Agouron Pharmaceuticals, Inc., priority 2002, dated 2006).

Assays:
[1] = biological target: T1, PDGFRβ (Homo sapiens, UniProt P09619); experiment: PAE-PDGFRβ phosphorylation in PAE-PDGFRB cells assay; type: cell-based; conditions: library amides from Example 101 (R101), crude mixtures in DMSO; read-out: PAE PDGFR autophos IC50
T1 construct: expressed in transfected cells; host or cells: porcine aorta endothelial (PAE)-PDGFRβ cells
How it was run: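 PAE cells overexpressing human PDGFRβ, serum-starved 16 h (0.1% FBS), were given compound for 1 h at 37 °C (0.5% DMSO) and then stimulated with 1 μg/mL PDGF-BB plus 2 mM Na3VO4 for 8 min. Receptor autophosphorylation was read by capture ELISA (HRP-PY20, TMB, 450 nm); IC50 from 4-parameter fit.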

[2] = biological target: T2, unphosphorylated VEGF-R2Δ50 (FLVK) (Homo sapiens, UniProt P35968, DEL940-989/E990V); experiment: VEGF-R2 coupled spectrophotometric assay, unphosphorylated VEGF-R2Δ50 (FLVK); type: biochemical; conditions: for inhibition at 0.1 µM: percent inhibition at 100 nM, library amides from Example 101 (R101), crude mixtures in DMSO, read-out: FLVK (% @ 100 nM); for inhibition at 0.05 µM: 50 nM compound, read-out: FLVK (% inh @ 50 nM); for inhibition at 0.05 µM / Ki: unphosphorylated VEGF-R2Δ50
T2 construct: VEGF-R2Δ50 contains residues 806–939 and 990–1171; made in house; host or cells: baculovirus/insect cell system
How it was run: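 Baculovirus-expressed human VEGF-R2Δ50 (kinase insert partly deleted, E990V), unphosphorylated form; ADP production coupled via PK/LDH to NADH oxidation, read at 340 nm. 20 mM poly(E4Y1), 3 mM ATP, 60 mM MgCl2, 2 mM MnCl2, 200 mM HEPES pH 7.5; 5–40 nM enzyme. Ki from Morrison tight-binding fit.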

[3] = biological target: T3, FGF-R1 (Homo sapiens, UniProt P11362, C488A/C584S/L457V); experiment: FGF-R spectrophotometric assay; type: biochemical; conditions: percent inhibition at 100 nM; library amides from Example 101 (R101), crude mixtures in DMSO
T3 construct: starting from the endogenous methionine residue 456 to glutamate 766; made in house; host or cells: baculovirus vector expression system
Method: FGF-R1 Construct for Assay:
The intracellular kinase domain of human FGF-R1 was expressed using the baculovirus vector expression system starting from the endogenous methionine residue 456 to glutamate 766, according to the residue numbering system of Mohammadi et al., Mol. Cell. Bio., 16, 977–989 (1996). In addition, the construct also has the following 3 amino acid substitutions: L457V, C488A, and C584S.
The spectrophotometric assay was carried out as described above for VEGF-R2, except for the following changes in concentration: FGF-R=50 nM, ATP=2 mM, and poly(E4Y1)=15 mM.

[4] = tested on: human umbilical vein endothelial cells (HUVEC); experiment: HUVEC+VEGF proliferation assay; type: cell-based; conditions: Homo sapiens, HUVEC; VEGF 6 ng/mL, 72 h, MTT
How it was run: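 Exponentially growing passage 3–4 HUVEC were starved 24 h in F12K + 1% FBS, given compound (0.1% final DMSO) 1 h before 6 ng/mL final VEGF, then cultured 72 h. Proliferation was read as MTT dye reduction (4 h exposure), absorbance at 595 nm.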

[5] = tested on: Huvec; experiment: bFGF Huvec proliferation; type: cell-based, human; conditions: Homo sapiens, HUVEC
[6] = Mouse PK assay; type: in vivo; conditions: 50 mg/kg, B6 female mice, plasma; for AUC / Cmax: mouse, po
Method: The pharmacokinetics (e.g., absorption and elimination) of drugs in mice were analyzed using the following experiment. Test compounds were formulated as a suspension in a 30:70 (PEG 400:acidified H2O) vehicle. This solution was administered orally (p.o.) and intraperitoneally (i.p.) at 50 mg/kg to two distinct groups (n=4) of B6 female mice. Blood samples were collected via an orbital bleed at time points: 0 hour (pre-dose), 0.5 hr, 1.0 hr, 2.0 hr, and 4.0 hr post dose. Plasma was obtained from each sample by centrifugation at 2500 rpm for 5 min. Test compound was extracted from the plasma by an organic protein precipitation method. For each time bleed, 50 μL of plasma was combined with 1.0 mL of acetonitrile, vortexed for 2 min. and then spun at 4000 rpm for 15 min. to precipitate the protein and extract out the test compound. Next, the acetonitrile supernatant (the extract containing test compound) was poured into new test tubes and evaporated on a hot plate (25° C.) under a steam of N2 gas. To each tube containing the dried test compound extract, 125 μL of mobile phase (60:40, 0.025 M NH4H2PO4+2.5 mL/L TEA:acetonitrile) was added. The test compound was resuspended in the mobile phase by vortexing and more protein was removed by centrifugation at 4000 rpm for 5 min. Each sample was poured into an HPLC vial for test compound analysis on an Hewlett Packard 1100 series HPLC with UV detection. From each sample, 95 μL was injected onto a Phenomenex-Prodigy reverse phase C-18, 150×3.2 mm column and eluted with a 45–50% acetonitrile gradient run over 10 min. Test-compound plasma concentrations (μg/mL) were determined by a comparison to standard curve (peak area vs. conc. μg/mL) using known concentrations of test compound extracted from plasma samples in the manner described above. Along with the standards and unknowns, three groups (n=4) of quality controls (0.25 μg/mL, 1.5 μg/mL, and 7.5 μg/mL) were run to insure the consistency of the analysis. […] The quantitated test samples were plotted for visual display using Kalidagraph software and their pharmacokinetic parameters were determined using WIN NONLIN software.

T1 sequence (P09619 33-1106): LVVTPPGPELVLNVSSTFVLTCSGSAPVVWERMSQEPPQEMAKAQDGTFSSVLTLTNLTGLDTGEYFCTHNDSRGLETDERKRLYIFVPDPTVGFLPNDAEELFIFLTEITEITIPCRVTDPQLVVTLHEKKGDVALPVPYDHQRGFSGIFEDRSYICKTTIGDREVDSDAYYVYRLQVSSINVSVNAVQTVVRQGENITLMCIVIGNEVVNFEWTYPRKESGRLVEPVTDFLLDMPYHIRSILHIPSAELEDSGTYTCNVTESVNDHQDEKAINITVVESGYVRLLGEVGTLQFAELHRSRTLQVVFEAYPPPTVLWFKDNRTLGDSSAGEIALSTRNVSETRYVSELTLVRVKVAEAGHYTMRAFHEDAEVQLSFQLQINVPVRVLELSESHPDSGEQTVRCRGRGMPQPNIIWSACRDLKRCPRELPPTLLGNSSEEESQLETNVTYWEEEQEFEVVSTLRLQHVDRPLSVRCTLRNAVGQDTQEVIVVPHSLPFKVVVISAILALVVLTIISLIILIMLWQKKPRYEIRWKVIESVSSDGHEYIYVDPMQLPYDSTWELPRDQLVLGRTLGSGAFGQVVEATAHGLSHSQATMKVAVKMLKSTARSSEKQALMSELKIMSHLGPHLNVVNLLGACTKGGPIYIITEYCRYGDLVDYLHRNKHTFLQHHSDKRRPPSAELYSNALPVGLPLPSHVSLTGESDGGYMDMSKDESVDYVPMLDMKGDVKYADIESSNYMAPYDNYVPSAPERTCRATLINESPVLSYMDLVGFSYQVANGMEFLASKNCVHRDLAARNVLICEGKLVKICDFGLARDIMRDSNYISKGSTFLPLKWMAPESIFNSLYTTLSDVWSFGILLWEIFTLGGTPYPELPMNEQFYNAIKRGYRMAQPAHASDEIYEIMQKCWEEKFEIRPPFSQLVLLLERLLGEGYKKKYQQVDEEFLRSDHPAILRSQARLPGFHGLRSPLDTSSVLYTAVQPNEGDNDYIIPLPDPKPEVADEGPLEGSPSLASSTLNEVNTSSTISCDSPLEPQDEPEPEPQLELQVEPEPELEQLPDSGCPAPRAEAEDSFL
T3 sequence (P11362 456-766 L457V/C488A/C584S): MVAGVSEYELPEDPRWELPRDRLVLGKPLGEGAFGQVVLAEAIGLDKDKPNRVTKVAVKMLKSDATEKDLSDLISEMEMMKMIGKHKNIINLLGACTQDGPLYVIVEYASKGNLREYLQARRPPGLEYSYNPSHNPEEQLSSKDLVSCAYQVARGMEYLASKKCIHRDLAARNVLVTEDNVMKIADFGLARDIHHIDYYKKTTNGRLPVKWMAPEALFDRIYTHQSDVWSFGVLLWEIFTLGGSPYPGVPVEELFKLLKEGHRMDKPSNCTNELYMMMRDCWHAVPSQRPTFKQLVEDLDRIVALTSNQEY
T2 sequence (P35968 with tags, fused parts or gaps DEL940-989/E990V limits assumed): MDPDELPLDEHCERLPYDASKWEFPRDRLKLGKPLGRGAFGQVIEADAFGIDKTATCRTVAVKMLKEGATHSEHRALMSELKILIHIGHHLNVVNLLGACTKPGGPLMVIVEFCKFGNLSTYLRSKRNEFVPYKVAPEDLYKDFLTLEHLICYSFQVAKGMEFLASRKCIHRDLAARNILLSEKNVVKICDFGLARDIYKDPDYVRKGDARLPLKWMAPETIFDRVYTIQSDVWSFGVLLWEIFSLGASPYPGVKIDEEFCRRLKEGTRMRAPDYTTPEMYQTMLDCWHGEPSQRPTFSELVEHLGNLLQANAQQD

Row | Structure (SMILES) | IC50 [1] | inhibition at 0.1 µM [2] | inhibition at 0.1 µM [3] | also measured
1 | Cc1oc2cc(Oc3ccnc4ccsc34)ccc2c1C(=O)Nc1cc(C2CC2)nn1C | > 100 nM | 56% | 3% | 
2 | Cc1oc2cc(Oc3ccnc4ccsc34)ccc2c1C(=O)Nc1cccc(-c2cc[nH]n2)c1 | > 100 nM | 94% | 0% | 
3 | Cc1oc2cc(Oc3ccnc4ccsc34)ccc2c1C(=O)Nc1n[nH]c2cccc(F)c12 | > 100 nM | 61% | 0% | 
4 | Cc1oc2cc(Oc3ccnc4ccsc34)ccc2c1C(=O)NCCOC(C)C [drawing 361] | 61 nM | 94% | 0% | 
5 | Cc1sc2cc(Oc3ccnc4cc(C(=O)N5CCC[C@H]5CO)sc34)ccc2c1C(=O)NC1CC1 [Example 8, 6-(2-[(S)-2-(hydroxymethyl)pyrrolidine-1-carbonyl]thieno[3,2-b]pyridin-7-yloxy)-2-methylbenzo[b]thiophene-3-carboxylic acid cyclopropylamide] |  |  |  | IC50 [4]: 1.37 nM; inhibition at 0.05 µM [2]: 94%; Ki [2]: 0.403 nM; IC50 [5]: 504 nM; mouse Cmin, po [6]: 105 ng/mL; AUC [6]: 2350 ng·h/mL; Cmax [6]: 666 ng/mL
6 | CNC(=O)c1c(C)sc2cc(Oc3ccnc4cc(C(=O)N5C[C@H](OC)[C@H](OC)C5)sc34)ccc12 [Example 5, 6-(2-[meso-3,4-dimethoxypyrrolidine-1-carbonyl]thieno[3,2-b]pyridin-7-yloxy)-2-methylbenzo[b]thiophene-3-carboxylic acid methylamide] |  |  |  | IC50 [4]: 1.55 nM; inhibition at 0.05 µM [2]: 73%; Ki [2]: 1.91 nM; IC50 [5]: 235 nM; mouse Cmin, po [6]: 256 ng/mL; AUC [6]: 12300 ng·h/mL; Cmax [6]: 6740 ng/mL
7 | Cc1oc2cc(Oc3ccnc4ccsc34)ccc2c1C(=O)NCC(c1ccc[nH]1)C(F)(F)F (centres unmarked) | > 100 nM | 85% | 3% | 
8 | Cc1oc2cc(Oc3ccnc4ccsc34)ccc2c1C(=O)Nc1nncs1 | > 100 nM | 75% | 35% | 
9 | Cc1csc(NC(=O)c2c(C)oc3cc(Oc4ccnc5ccsc45)ccc23)n1 | > 100 nM | 62% | 7% | 
10 | Cc1oc2cc(Oc3ccnc4ccsc34)ccc2c1C(=O)Nc1nnc(C2CC2)s1 | > 100 nM | 100% | 4% | 
11 | Cc1oc2cc(Oc3ccnc4ccsc34)ccc2c1C(=O)Nc1cc(-c2ccco2)n[nH]1 | > 100 nM | 101% | 1% | 
12 | COc1ccc(NC(=O)c2c(C)oc3cc(Oc4ccnc5ccsc45)ccc23)c(OC)n1 | > 100 nM | 92% | 1% | 

Second part, led by results:

Row | IC50 [1] | inhibition at 0.1 µM [2] | inhibition at 0.1 µM [3] | Structure (SMILES) | also measured
13 | 57 nM | 87% | 0% | Cc1oc2cc(Oc3ccnc4ccsc34)ccc2c1C(=O)Nc1ccc2cn[nH]c2c1 | 
14 | 53 nM | 103% | 2% | Cc1oc2cc(Oc3ccnc4ccsc34)ccc2c1C(=O)NCCCN1CCOCC1 [drawing 308] | 
15 | 57 nM | 101% | 0% | Cc1oc2cc(Oc3ccnc4ccsc34)ccc2c1C(=O)Nc1ccc(N2CCOCC2)nc1 [drawing 369] | 
16 | > 100 nM | 85% | 7% | Cc1oc2cc(Oc3ccnc4ccsc34)ccc2c1C(=O)Nc1cnc2ccccc2c1 | 
17 | > 100 nM | 96% | 0% | Cc1oc2cc(Oc3ccnc4ccsc34)ccc2c1C(=O)Nc1ccc2ncsc2c1 | 
18 | ~100 nM | 96% | 0% | Cc1oc2cc(Oc3ccnc4ccsc34)ccc2c1C(=O)Nc1ccc2[nH]ncc2c1 | 
19 | > 100 nM | 90% | 20% | Cc1oc2cc(Oc3ccnc4ccsc34)ccc2c1C(=O)Nc1nccs1 | 
20 | ~100 nM | 85% | 0% | Cc1ccc(NC(=O)c2c(C)oc3cc(Oc4ccnc5ccsc45)ccc23)c(O)c1 | 
